According to PubChem BioAssay AID330 (DTP/NCI, 2004):
Values joined by “and” are separate entries in the source; they are usually repeats but may differ in a detail not shown here. Equal values may be shown once. Toxic doses and inconclusive results are not listed. Rule for the calls: active = survival T/C of 150% or more; inactive = T/C below 125% in these data.

Test system: P388 leukemia ip, CD2F1 mice, survival T/C
Assay: NCI In Vivo Anticancer Drug Screen. Data for tumor model P388 Leukemia (intraperitoneal) in CD2F1 (CDF1) mice
Details: endpoint: median survival time, higher = longer survival
Method in brief: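 Mice carrying the transplanted tumor received test compound or vehicle. Survival was recorded in each group, and the value is the treated-group measurement divided by that of the vehicle-treated control group.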

[1] = dose: 50.0 mg/kg/injection, schedule: Q01DX009 (ip), vehicle: Klucel (hydroxypropylcellulose) (HPC)
[2] = dose: 100.0 mg/kg/injection, schedule: Q01DX009 (ip), vehicle: Klucel (hydroxypropylcellulose) (HPC)
[3] = dose: 200.0 mg/kg/injection, schedule: Q01DX009 (ip), vehicle: Klucel (hydroxypropylcellulose) (HPC)
[4] = dose: 12.5 mg/kg/injection, schedule: Q01DX005 (ip), vehicle: saline with Tween-80
[5] = dose: 25.0 mg/kg/injection, schedule: Q01DX005 (ip), vehicle: saline with Tween-80
[6] = dose: 50.0 mg/kg/injection, schedule: Q01DX005 (ip), vehicle: saline with Tween-80
[7] = dose: 200.0 mg/kg/injection, schedule: Q01DX009 (ip), vehicle: saline

Measured: T/C

O=S(=O)(NCc1ccccc1)c1ccccc1
inactive: dose: 12.5 mg/kg/injection, schedule: Q01DX009 (ip), vehicle: Klucel (hydroxypropylcellulose) (HPC) 104 % of control | dose: 25.0 mg/kg/injection, schedule: Q01DX009 (ip), vehicle: Klucel (hydroxypropylcellulose) (HPC) 94 % of control | [1] 95 % of control | [2] 104 % of control | [3] 106 % of control

CN1CCc2cc(O)c(O)cc2C1
inactive: dose: 100.0 mg/kg/injection, schedule: Q04DX003 (ip), vehicle: saline 98 % of control | dose: 200.0 mg/kg/injection, schedule: Q04DX003 (ip), vehicle: saline 103 % of control

COc1cc(C(=O)n2c(=O)oc(=O)c3cc([N+](=O)[O-])ccc32)cc(OC)c1OC
inactive: dose: 60.0 mg/kg/injection, schedule: Q01DX005 (ip), vehicle: saline 101 % of control | dose: 120.0 mg/kg/injection, schedule: Q01DX005 (ip), vehicle: saline 94 % of control | dose: 240.0 mg/kg/injection, schedule: Q01DX005 (ip), vehicle: saline 89 % of control

CC(C)(C)N1CC(COc2ccc(Cl)cc2)OC1=O (stereo not given)
inactive: [1] 99 % of control | [2] 104 % of control | [3] 102 % of control

Nc1c(C(=O)O)ccc2c1C(=O)c1ccccc1C2=O
inactive: dose: 6.25 mg/kg/injection, schedule: Q01DX005 (ip), vehicle: saline with Tween-80 96 % of control | [4] 96 % of control | [5] 98 % of control | [6] 103 % of control

O=C1NC(=O)C2(C(=O)c3cccc4cccc2c34)N1c1ccccc1 (stereo not given)
inactive: dose: 50.0 mg/kg/injection, schedule: Q01DX009 (ip), vehicle: distilled water + alcohol 94 % of control | dose: 100.0 mg/kg/injection, schedule: Q01DX009 (ip), vehicle: distilled water + alcohol 102 % of control | dose: 200.0 mg/kg/injection, schedule: Q01DX009 (ip), vehicle: distilled water + alcohol 100 % of control

N=C(N)c1ccc2oc(/C=C/c3nc4ccc(C(=N)N)cc4[nH]3)cc2c1
inactive: dose: 100.0 mg/kg/injection, schedule: Q01DX001 (ip), vehicle: Klucel (hydroxypropylcellulose) (HPC) 98 % of control | dose: 200.0 mg/kg/injection, schedule: Q01DX001 (ip), vehicle: Klucel (hydroxypropylcellulose) (HPC) 96 % of control | dose: 400.0 mg/kg/injection, schedule: Q01DX001 (ip), vehicle: Klucel (hydroxypropylcellulose) (HPC) 98 % of control

CC1=C(C(=O)Nc2ccccc2)C(/C=C/c2ccccc2)C(C(=O)Nc2ccccc2)=C(C)N1
inactive: dose: 25.0 mg/kg/injection, schedule: Q01DX001 (ip), vehicle: saline with Tween-80 92 % of control | dose: 50.0 mg/kg/injection, schedule: Q01DX001 (ip), vehicle: saline with Tween-80 89 % of control | dose: 100.0 mg/kg/injection, schedule: Q01DX001 (ip), vehicle: saline with Tween-80 96 % of control

COC(=O)C1C(O)CCC2CN3CCc4c([nH]c5cc(OC)ccc45)C3CC21 (stereo not given)
inactive: dose: 20.0 mg/kg/injection, schedule: Q01DX005 (ip), vehicle: DMSO 104 % of control | dose: 40.0 mg/kg/injection, schedule: Q01DX005 (ip), vehicle: DMSO 111 % of control | dose: 80.0 mg/kg/injection, schedule: Q01DX005 (ip), vehicle: DMSO 102 % of control | dose: 160.0 mg/kg/injection, schedule: Q01DX005 (ip), vehicle: DMSO 100 % of control

COC(=O)c1ccccc1SSCCN
inactive: [4] 100 % of control | [5] 106 % of control | [6] 101 % of control and 109 % of control

COc1ccc(/C=C/C(=N/Nc2ccccc2)C(C)CN(C)C)cc1 (stereo not given)
inactive: dose: 60.0 mg/kg/injection, schedule: Q01DX005 (ip), vehicle: saline with Tween-80 101 % of control | dose: 120.0 mg/kg/injection, schedule: Q01DX005 (ip), vehicle: saline with Tween-80 95 % of control

NCCCCC(N)C(=O)O (stereo not given)
inactive: dose: 50.0 mg/kg/injection, schedule: Q01DX009 (ip), vehicle: saline 104 % of control | dose: 100.0 mg/kg/injection, schedule: Q01DX009 (ip), vehicle: saline 100 % of control | [7] 94 % of control

C=CC[Si](CC=C)(c1ccccc1)c1ccccc1
inactive: dose: 6.25 mg/kg/injection, schedule: Q01DX009 (ip), vehicle: saline 99 % of control and 96 % of control (2×) | [7] 98 % of control
